Laboratory results from publication PMC2990605 (British Journal of Cancer, 2010).

Assay: Adverse events (CTCAEv3.0), worst grade per patient regardless of relation, and laboratory parameters
Type: in vivo
Conditions: human, in vivo
Method: Toxicity was evaluated according to common toxicity criteria for adverse events (CTCAEv3.0). The MTD was defined as the dose level(s) at which at least two out of six patients developed DLT.
Toxicity assessment, haematology and clinical biochemistry were performed at baseline and weekly during the study. Physical and ECOG performance status were recorded at baseline and before the next cycle.

CC(C)C[C@@H](C(=O)N[C@H](C(=O)OC1CCCC1)c1ccccc1)[C@H](O)C(=O)NO [tosedostat]
Cough, CTCAE grade 3, patients: 0
Cough, CTCAE grade 4, patients: 0
Cough, patients with events, %: 41%
Cystitis, CTCAE grade 1, patients: 0
Cystitis, CTCAE grade 2, patients: 1
Cystitis, CTCAE grade 3, patients: 1
Cystitis, CTCAE grade 4, patients: 0
Cystitis, patients with events, %: 9%
Dehydration, CTCAE grade 1, patients: 0
Dehydration, CTCAE grade 2, patients: 1
Dehydration, CTCAE grade 3, patients: 1
Dehydration, CTCAE grade 4, patients: 0
Dehydration, patients with events, %: 9%
Diabetes mellitus, CTCAE grade 1, patients: 0
Diabetes mellitus, CTCAE grade 2, patients: 0
Diabetes mellitus, CTCAE grade 3, patients: 1
Diabetes mellitus, CTCAE grade 4, patients: 0
Diabetes mellitus, patients with events, %: 5%
Diarrhoea, CTCAE grade 1, patients: 5
Diarrhoea, CTCAE grade 2, patients: 3
Diarrhoea, CTCAE grade 3, patients: 0
Diarrhoea, CTCAE grade 4, patients: 0
Diarrhoea, patients with events, %: 36%
Dizziness, CTCAE grade 1, patients: 8
Dizziness, CTCAE grade 2, patients: 1
Dizziness, CTCAE grade 3, patients: 1
Dizziness, CTCAE grade 4, patients: 0
Dizziness, patients with events, %: 45%
Drug hypersensitivity, CTCAE grade 1, patients: 3
Drug hypersensitivity, CTCAE grade 2, patients: 1
Drug hypersensitivity, CTCAE grade 3, patients: 7
Drug hypersensitivity, CTCAE grade 4, patients: 0
Drug hypersensitivity, patients with events, %: 50%
Dry skin, CTCAE grade 1, patients: 3
Dry skin, CTCAE grade 2, patients: 0
Dry skin, CTCAE grade 3, patients: 1
Dry skin, CTCAE grade 4, patients: 0
Dry skin, patients with events, %: 18%
Dyspnoea, CTCAE grade 1, patients: 6
Dyspnoea, CTCAE grade 4, patients: 0
Eosinophilic myocarditis, CTCAE grade 1, patients: 0
Eosinophilic myocarditis, CTCAE grade 2, patients: 0
Eosinophilic myocarditis, CTCAE grade 3, patients: 0
Eosinophilic myocarditis, CTCAE grade 4, patients: 0
Eosinophilic myocarditis, patients with events, %: 5%
Erythema, CTCAE grade 1, patients: 1
Erythema, CTCAE grade 2, patients: 0
Erythema, CTCAE grade 3, patients: 1
Erythema, CTCAE grade 4, patients: 0
Erythema, patients with events, %: 9%
Fatigue, CTCAE grade 1, patients: 5
Fatigue, CTCAE grade 2, patients: 10
Fatigue, CTCAE grade 3, patients: 6
Fatigue, CTCAE grade 4, patients: 0
Fatigue, patients with events, %: 95%
Gastric dilatation, CTCAE grade 1, patients: 0
Gastric dilatation, CTCAE grade 2, patients: 0
Gastric dilatation, CTCAE grade 3, patients: 1
Gastric dilatation, CTCAE grade 4, patients: 0
Gastric dilatation, patients with events, %: 5%
General physical health deterioration, CTCAE grade 1, patients: 0
General physical health deterioration, CTCAE grade 2, patients: 0
General physical health deterioration, CTCAE grade 3, patients: 1
General physical health deterioration, CTCAE grade 4, patients: 0
General physical health deterioration, patients with events, %: 5%
Hypercalcaemia, CTCAE grade 1, patients: 0
Hypercalcaemia, CTCAE grade 2, patients: 0
Hypercalcaemia, CTCAE grade 3, patients: 1
Hypercalcaemia, CTCAE grade 4, patients: 0
Hypercalcaemia, patients with events, %: 5%
Hyperglycaemia, CTCAE grade 1, patients: 0
Hyperglycaemia, CTCAE grade 2, patients: 1
Hyperglycaemia, CTCAE grade 3, patients: 2
Hyperglycaemia, CTCAE grade 4, patients: 0
Hyperglycaemia, patients with events, %: 14%
Hyperhidrosis, CTCAE grade 1, patients: 2
Hyperhidrosis, CTCAE grade 2, patients: 0
Hyperhidrosis, CTCAE grade 3, patients: 1
Hyperhidrosis, CTCAE grade 4, patients: 0
Hyperhidrosis, patients with events, %: 14%
Leukopenia, CTCAE grade 1, patients: 0
Leukopenia, CTCAE grade 2, patients: 1
Leukopenia, CTCAE grade 3, patients: 3
Leukopenia, CTCAE grade 4, patients: 0
Leukopenia, patients with events, %: 18%
Malaise, CTCAE grade 1, patients: 1
Malaise, CTCAE grade 2, patients: 1
Malaise, CTCAE grade 3, patients: 1
Malaise, CTCAE grade 4, patients: 0
Malaise, patients with events, %: 14%
Mucosal inflammation, CTCAE grade 1, patients: 4
Mucosal inflammation, CTCAE grade 2, patients: 1
Mucosal inflammation, CTCAE grade 3, patients: 0
Mucosal inflammation, CTCAE grade 4, patients: 0
Mucosal inflammation, patients with events, %: 23%
Myalgia, CTCAE grade 1, patients: 8
Myalgia, CTCAE grade 2, patients: 1
Myalgia, CTCAE grade 3, patients: 1
Myalgia, CTCAE grade 4, patients: 0
Myalgia, patients with events, %: 45%
Nasopharyngitis, CTCAE grade 1, patients: 6
Nasopharyngitis, CTCAE grade 2, patients: 0
Nasopharyngitis, CTCAE grade 3, patients: 0
Nasopharyngitis, CTCAE grade 4, patients: 0
Nasopharyngitis, patients with events, %: 27%
Nausea, CTCAE grade 1, patients: 9
Nausea, CTCAE grade 2, patients: 1
Nausea, CTCAE grade 3, patients: 0
Nausea, CTCAE grade 4, patients: 0
Nausea, patients with events, %: 45%
Neoplasms benign, malignant and unspecified (including cysts and polyps), patients with events, %: 14%
Nervous system disorders, patients with events, %: 95%
Neutropenia, CTCAE grade 1, patients: 0
Neutropenia, CTCAE grade 2, patients: 0
Neutropenia, CTCAE grade 3, patients: 2
Neutropenia, CTCAE grade 4, patients: 4
Neutropenia, patients with events, %: 27%
Oedema peripheral, CTCAE grade 1, patients: 6
Oedema peripheral, CTCAE grade 2, patients: 2
Oedema peripheral, CTCAE grade 3, patients: 0
Oedema peripheral, CTCAE grade 4, patients: 0
Oedema peripheral, patients with events, %: 36%
Oedema, CTCAE grade 1, patients: 4
Oedema, CTCAE grade 2, patients: 0
Oedema, CTCAE grade 3, patients: 1
Oedema, CTCAE grade 4, patients: 0
Oedema, patients with events, %: 23%
Peripheral sensory neuropathy, CTCAE grade 1, patients: 6
Peripheral sensory neuropathy, CTCAE grade 2, patients: 4
Peripheral sensory neuropathy, CTCAE grade 3, patients: 3
Peripheral sensory neuropathy, CTCAE grade 4, patients: 0
Peripheral sensory neuropathy, patients with events, %: 59%
Pollakiuria, CTCAE grade 1, patients: 0
Pollakiuria, CTCAE grade 2, patients: 0
Pollakiuria, CTCAE grade 3, patients: 1
Pollakiuria, CTCAE grade 4, patients: 0
